Values after ≈ are worked out from the molar mass of the structure shown. Peptide text beside a SMILES is read from it.
Tests used:
[1] = Induction of erythrocyte lysis at 100 uM; type: cell-based; details: human, erythrocytes; read-out: Activity
Escherichia coli = test: Antibacterial activity against Escherichia coli; type: functional
Bacillus subtilis = test: Antibacterial activity against Bacillus subtilis; type: functional

MIC (Escherichia coli) [µM] | MIC (Bacillus subtilis) [µM] | SMILES | hemolysis at 100 µM [1] [%]
> 125 | 31.3 (≈ 28 µg/mL) | NCCNC(=O)[C@H](Cc1c[nH]c2ccccc12)NC(=O)c1cc(C(=O)N[C@@H](Cc2c[nH]c3ccccc23)C(=O)NCCN)cc(C(=O)N[C@@H](Cc2c[nH]c3ccccc23)C(=O)NCCN)c1 | 1.2
25 (≈ 22.6 µg/mL) | 25 (≈ 22.6 µg/mL) | NCCCC[C@@H]1NC(=O)[C@H](CCCCN)NC(=O)[C@H](Cc2ccccc2)NC(=O)[C@H](CCCCN)NC(=O)[C@H](Cc2c[nH]c3ccccc23)NC(=O)[C@H](Cc2c[nH]c3ccccc23)NC1=O (cyclo(FKKWWK)) | 10
62.5 (≈ 63.8 µg/mL) | 31.3 (≈ 32 µg/mL) | NCCCCCNC(=O)[C@H](Cc1c[nH]c2ccccc12)NC(=O)c1cc(C(=O)N[C@@H](Cc2c[nH]c3ccccc23)C(=O)NCCCCCN)cc(C(=O)N[C@@H](Cc2c[nH]c3ccccc23)C(=O)NCCCCCN)c1 | 0.4
6.3 (≈ 6.23 µg/mL) | 3.1 (≈ 3.06 µg/mL) | N=C(N)NCCC[C@@H]1NC(=O)[C@H](CCCNC(=N)N)NC(=O)[C@H](Cc2ccccc2)NC(=O)[C@H](CCCNC(=N)N)NC(=O)[C@H](Cc2c[nH]c3ccccc23)NC(=O)[C@H](Cc2c[nH]c3ccccc23)NC1=O (cyclo(RRWWRF)) | 24
> 250 | > 250 | O=C(O)c1cc(C(=O)O)cc(C(=O)O)c1 | < 1
> 250 | > 250 | NCCNC(=O)[C@@H](N)Cc1c[nH]c2ccccc12 | < 1
15.6 (≈ 17.9 µg/mL) | 2 (≈ 2.29 µg/mL) | N=C(N)NCCCCCNC(=O)[C@H](Cc1c[nH]c2ccccc12)NC(=O)c1cc(C(=O)N[C@@H](Cc2c[nH]c3ccccc23)C(=O)NCCCCCNC(=N)N)cc(C(=O)N[C@@H](Cc2c[nH]c3ccccc23)C(=O)NCCCCCNC(=N)N)c1 | 22.6
> 125 | 3.9 (≈ 3.98 µg/mL) | N=C(N)NCCNC(=O)[C@H](Cc1c[nH]c2ccccc12)NC(=O)c1cc(C(=O)N[C@@H](Cc2c[nH]c3ccccc23)C(=O)NCCNC(=N)N)cc(C(=O)N[C@@H](Cc2c[nH]c3ccccc23)C(=O)NCCNC(=N)N)c1 | 5.1
> 250 | > 250 | NCCCCCNC(=O)[C@@H](N)Cc1c[nH]c2ccccc12 | < 1

From ChEMBL document CHEMBL1139150, “Design of antimicrobial compounds based on peptide structures” (Bioorg Med Chem Lett, 2007)
